According to patent US20220288057A1, “CONJOINT THERAPY FOR TREATING SEIZURE DISORDERS” (XENON PHARMACEUTICALS INC., priority 2021, published 2022):
Where two headings read alike, the source gives them in different places.

Key:
[1] = Terminal plasma and brain concentrations in AC-MES studies (UHPLC-MS/MS); type: in vivo, mouse; settings: CF-1, mouse, in vivo; for Kp at 2 h: read-out: B/P Ratio
Description: Sample Collection and Preparation: Mice were anesthetized by isoflurane inhalation (according to SOP TECH-018) until they reached a surgical plane of anesthesia. Then a syringe (1 mL syringe with a 22 gauge needle) was inserted under the sternum into the heart (according to SOP TECH-031). Approximately 0.5 mL of blood was collected, deposited into a K2EDTA tube, and stored on ice. Animals were then euthanized by cervical dislocation. Brains were removed, placed into a pre-weighed vial, and snap frozen on dry ice. At the end of the sample collection, blood was centrifuged at 4000 rpm for 10 minutes at 4° C., and the plasma pipetted into a labeled tube. All samples were stored in a −80° C. freezer until the time of bioanalysis.
Plasma Samples: Extraction of plasma samples was carried out by protein precipitation using acetonitrile. Diluted plasma samples (50 μL) were mixed with 50 μL of internal standard (IS) solution in 1:1 acetonitrile:water (v:v) followed by addition of 200 μL of acetonitrile. Samples were vortexed for 30 seconds, centrifuged at 13,000 rpm for 20 minutes, decanted into a 96-well plate and further centrifuged at 4000 rpm for 20 minutes. The samples were analyzed by ultra-high performance liquid chromatography electrospray ionization tandem mass spectrometry (UHPLC-ESI-MS/MS) as described in the bioanalysis procedure below.
Brain Samples: Prior to extraction, pre-weighed whole brains were homogenized in 1:1 acetonitrile:water (v:v) (2 mL per mouse brain) using an IKA T18 Ultra-Turrax Homogenizer at the setting of 4 for approximately 1 minute. The homogenate was centrifuged at 13,000 rpm for 20 minutes and 50 μL of the supernatant were treated exactly as described in above for plasma samples.
Bioanalysis Procedures: All samples, including plasma and brain homogenate extracts (including calibration standards and quality control (QC) samples prepared in K2EDTA mouse plasma), were extracted by protein precipitation. To each 50 μL aliquot of sample, 50 μL of IS solution (2500 ng/mL of Lacosamide in water:acetonitrile (1:1)) and 50 μL of 6% (v:v) phosphoric acid in water were added, then 200 μL acetonitrile was added. The samples in 1.7 mL tubes were vortex-mixed then centrifuged for 20 minutes at 13,000 rpm. Fifty microliters of the supernatant was mixed with 150 μL of water:acetonitrile (1:1) in a 96 well plate, which was centrifuged post-mixing for 20 minutes at 4000 rpm. The samples were then ready for UHPLC-MS/MS analysis.
Samples were analyzed for Compound A by a research-grade UHPLC-MS/MS method using the conditions listed below.
Samples were analyzed for Lacosamide by a research-grade UHPLC-MS/MS method using the conditions listed below.
At least three QC samples, one at each concentration, had to show back-calculated values within ±20% of their nominal concentrations for the whole sample batch to be valid.
(§1) The Blinding and Randomization, Clinical Observations, AC-MES Assay, Sample Collection and Preparation, Plasma and Brain Samples Analysis, and Bioanalysis Procedures in Example 4 were identical to those used in Example 2.
Sample concentration determination and Data Processing and Analysis in Example 4 was identical to Example 2.

CF-1 mouse = assay: Clinical observations / behavioral signs in AC-MES studies; type: in vivo; settings: 2 h
Description: Any qualitative changes from normal behavior were recorded.
Five oral (PO) doses of Compound A were each tested in the AC-MES model. Thirty minutes after administration of Compound A at 1 mg/kg (n=8), 3 mg/kg (n=8), 5 mg/kg (n=16), 7.5 mg/kg (n=7), and 10 mg/kg (n=17) via oral gavage to male CF-1 mice (body weights 28.2 to 43.8 g), the mice underwent a 60 Hz corneal electrical stimulus (0.2 seconds duration, 40 mA). This stimulus elicited a tonic hindlimb extension in all vehicle-dosed animals. […] An observational neurological assessment (qualitative test) was also conducted at the time of testing as a tolerability screen. Terminal plasma and brain samples were collected from all animals to obtain the levels of Compound A concentration, and to understand the relationship between efficacy and drug concentration.
as §1

For `COC[C@@H](NC(C)=O)C(=O)NCc1ccccc1` [Lacosamide, reference compound], the Kp at 2 h ([1]; 6 mg/kg, Study 2A, Lacosamide 6 mg/kg PO, 2 h) was 0.54, the concentration at 2 h ([1]; 6 mg/kg, Study 2A, Lacosamide 6 mg/kg PO, 2 h, read-out: Mean Brain) was 4.85 µM and the concentration at 2 h ([1]; 6 mg/kg, Study 2A, Lacosamide 6 mg/kg PO, 2 h, read-out: Mean Plasma) was 9.07 µM. For the same compound, the Kp at 2 h ([1]; 6 mg/kg, Study 2D, Lacosamide 6 mg/kg PO, 2 h) was 1.15, the concentration at 2 h ([1]; 6 mg/kg, Study 2D, Lacosamide 6 mg/kg PO, 2 h, read-out: Mean Brain) was 7.95 µM and the concentration at 2 h ([1]; 6 mg/kg, Study 2D, Lacosamide 6 mg/kg PO, 2 h, read-out: Mean Plasma) was 6.9 µM. It also gave a Kp at 2 h ([1]; 8 mg/kg, Study 2A, Lacosamide 8 mg/kg PO, 2 h) of 0.58, a concentration at 2 h ([1]; 8 mg/kg, Study 2A, Lacosamide 8 mg/kg PO, 2 h, read-out: Mean Brain) of 6.27 µM and a concentration at 2 h ([1]; 8 mg/kg, Study 2A, Lacosamide 8 mg/kg PO, 2 h, read-out: Mean Plasma) of 10.8 µM. It also gave a Kp at 2 h ([1]; 10 mg/kg, Study 2B, Lacosamide 10 mg/kg PO, 2 h) of 0.21, a concentration at 2 h ([1]; 10 mg/kg, Study 2B, Lacosamide 10 mg/kg PO, 2 h, read-out: Mean Brain) of 2.63 µM and a concentration at 2 h ([1]; 10 mg/kg, Study 2B, Lacosamide 10 mg/kg PO, 2 h, read-out: Mean Plasma) of 12.6 µM. The Kp at 2 h ([1]; 10 mg/kg, Study 2C, Lacosamide 10 mg/kg PO, 2 h, alone) was 0.28, the concentration at 2 h ([1]; 10 mg/kg, Study 2C, Lacosamide 10 mg/kg PO, 2 h, alone, read-out: Mean Brain) was 4.84 µM and the concentration at 2 h ([1]; 10 mg/kg, Study 2C, Lacosamide 10 mg/kg PO, 2 h, alone, read-out: Mean Plasma) was 17.1 µM. The Kp at 2 h ([1]; 20 mg/kg, Study 2D, Lacosamide 20 mg/kg PO, 2 h) was 1.12, the concentration at 2 h ([1]; 20 mg/kg, Study 2D, Lacosamide 20 mg/kg PO, 2 h, read-out: Mean Brain) was 26.8 µM and the concentration at 2 h ([1]; 20 mg/kg, Study 2D, Lacosamide 20 mg/kg PO, 2 h, read-out: Mean Plasma) was 23.9 µM. It also gave a Kp at 2 h ([1]; Study 2C, analyte Lacosamide, 10 mg/kg PO 2 h + Compound A 3 mg/kg PO 0.5 h) of 0.29, a concentration at 2 h ([1]; Study 2C, analyte Lacosamide, 10 mg/kg PO 2 h + Compound A 3 mg/kg PO 0.5 h, read-out: Mean Brain) of 4.52 µM and a concentration at 2 h ([1]; Study 2C, analyte Lacosamide, 10 mg/kg PO 2 h + Compound A 3 mg/kg PO 0.5 h, read-out: Mean Plasma) of 15.5 µM. The “Fraction with Behavioral Signs” value (CF-1 mouse; Study 2A, Lacosamide 6 mg/kg PO) was 0/8, the “Fraction with Behavioral Signs” value (CF-1 mouse; Study 2A, Lacosamide 8 mg/kg PO) was 0/8 and the “Fraction with Behavioral Signs” value (CF-1 mouse; Study 2B, Lacosamide 10 mg/kg PO) was 0/8. The “Fraction with Behavioral Signs” value (CF-1 mouse; Study 2C, Lacosamide 10 mg/kg PO, alone) was 0/8, the “Fraction with Behavioral Signs” value (CF-1 mouse; Study 2D, Lacosamide 6 mg/kg PO) was 0/8 and the “Fraction with Behavioral Signs” value (CF-1 mouse; Study 2D, Lacosamide 20 mg/kg PO) was 0/8.
